Bridge positions count the residues as written; N and C are the ends. Ends that are not written are not given here.
Key:
[1] = system: CFA-induced thermal hyperalgesia; conditions: rats; cited from earlier work
Procedure: An inhibition of ASIC3 was reported to be an attractive approach to producing analgesia. […] Other nonspecific substances can also influence ASIC3 activity. […] Several ligands with inhibitory properties were found for this receptor, each of which was able to induce analgesia in animal tests. The most well-known inhibitor APETx2 in various studies has been tested on models of acid-induced muscle pain model, CFA-induced inflammatory pain model (at doses of 0.07, 0.22 and 2.2 µM). Ugr9-1 was studied in models of CFA-induced thermal hyperalgesia and acetic acid writhing test (at doses of 0.5, 0.1, and 0.01 mg/kg). […] The nonspecific actions on other cellular targets and the changes of ASIC3 involvement in the inflammatory process induced by the high antagonists’ concentration for 2 h are suspected. We conclude that the inhibition of both components of ASIC3 currents could be beneficial but could be reversed by hormesis in high doses and during a long exposure to ...

[2] = system: ASIC3; conditions: cited from earlier work
Description: (§1) An inhibition of ASIC3 was reported to be an attractive approach to producing analgesia. […] Other nonspecific substances can also influence ASIC3 activity.

[3] = system: animal models of pain; conditions: cited from earlier work
[4] = system: proton-gated currents in DRG neurons; parameters: method as in PMID 25395088; conditions: cited from earlier work
[5] = system: voltage-gated Na^+-channels; parameters: method as in PMID 22648244; conditions: cited from earlier work
[6] = system: ASIC1a; conditions: cited from earlier work
Description: as §1

[7] = system: ASIC1b; conditions: cited from earlier work
Description: as §1

[8] = target: T1, human ASIC3 (Homo sapiens, UniProt Q9UHC3); assay: Inhibition of transient hASIC3 current, two-electrode voltage clamp, Xenopus laevis oocytes; assay type: cell-based
T1 construct: host or cells: Xenopus laevis oocytes (cRNA injection)
T1 sequence (Q9UHC3 1-531): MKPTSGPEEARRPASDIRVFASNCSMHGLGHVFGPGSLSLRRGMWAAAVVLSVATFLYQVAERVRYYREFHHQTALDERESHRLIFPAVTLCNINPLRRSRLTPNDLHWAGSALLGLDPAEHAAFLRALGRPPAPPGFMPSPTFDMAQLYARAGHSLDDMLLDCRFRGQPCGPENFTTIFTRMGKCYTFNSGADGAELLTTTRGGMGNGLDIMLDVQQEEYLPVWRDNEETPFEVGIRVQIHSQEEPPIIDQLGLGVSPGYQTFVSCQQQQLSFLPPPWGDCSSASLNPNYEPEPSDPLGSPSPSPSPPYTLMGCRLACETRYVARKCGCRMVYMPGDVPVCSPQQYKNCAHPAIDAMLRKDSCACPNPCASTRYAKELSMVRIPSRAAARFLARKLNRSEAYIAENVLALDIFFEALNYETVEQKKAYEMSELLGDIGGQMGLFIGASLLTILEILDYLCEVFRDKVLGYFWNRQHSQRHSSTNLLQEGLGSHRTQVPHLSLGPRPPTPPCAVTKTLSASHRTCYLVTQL
Procedure: The activity of ligands was checked on human ASIC3 (hASIC3) channels expressed in Xenopus laevis oocytes. […] Two different protocols were used to reveal the effects of ligands on sustained and transient components of acid-induced hASIC3 currents. The influence of the compounds on the transient current amplitude was estimated after preincubation for 15 s before the activation in a low alkali bath solution (pH 7.8), which ensured an absence of steady-state desensitization for the transient current (Figure 1A). The compounds’ inhibition effectiveness was calculated using the value of maximal amplitudes. […] The inhibitory effect was concentration-dependent and fit well using a logistic equation.
Figure 1 Comparison of ligands’ antagonistic effects on hASIC3 channels. Whole-cell currents were induced by pH drops and recorded at the holding potential −50 mV. (A) Effect of ligands on the transient component of current at conditioning pH 7.8. The control trace is shown first; (B) Effect of ligands on the sustained component at conditioning pH 7.3. The black line is the control trace, and the red line is the trace of activation in the presence of a ligand. Dose-response curves for transient (C) and sustained (D) currents’ inhibitions are shown. Data are shown as mean ± SEM (n = 4–6) and fitted with the logistic equation (solid lines).
X. laevis oocytes were removed surgically and defolliculated by collagenase (Sigma-Aldrich, Moscow, Russia). Oocytes were injected with 2.5 to 10 ng of human ASIC3 cRNA (AF057711.1). The cRNA transcripts were synthesised from a NaeI-linearized ASIC3 cDNA template (pcDNA3.1+humanASIC3 subcloned from clone EX-Q0260- B02 (GeneCopoeia, Inc., Rockville, MD USA) using a HiScribe T7 High Yield RNA Synthesis Kit (New England Biolabs, Ipswich, MA, USA) according to the manufacturer’s protocol for capped transcripts. After the injection, oocytes were kept for 3 to 6 days at 19° in a ND-96 medium containing (in mM) 96 NaCl, 2 KCl, 1.8 CaCl2, 1 MgCl2, and 5 HEPES titrated to pH 7.4 with NaOH supplemented with gentamycin (50 µg/mL). Two-electrode voltage clamp recordings were performed using a GeneClamp 500 amplifier (Axon Instruments, Union City, CA, USA), and the data were filtered at 20 Hz and digitized at 100 Hz by an AD converter L780 (LCard, Moscow, Russia) using in-house software. To induce transient and/or sustained currents, two different protocols with different conditioning pH were used. Microelectrodes were filled with a 3 M KCl solution. The working buffer solution was ND-96 titrated by NaOH to pH 7.8 or 7.3. The solution for the pH shift was constructed based on the ND-96 solution, in which 5 mM HEPES was replaced with 10 mM acetic acid (pH 4.0) or 10 mM MES (pH 5.5) in a supplementary 0.1% BSA solution. The duration of the activation pulses was 3.5 s.
The analysis of the electrophysiological data was performed using the OriginPro 8.6 programme.

[9] = system: mice; assay: Open field test; assay type: in vivo, CD-1 mice; conditions: 1 mg/kg intramuscular, 4 h before; n = 6–7
Procedure: An open field test was carried out on mice to estimate the possible sedative effects of compounds administration. No statistically significant changes were detected between ASIC3 antagonist-treated groups and the control animals group in 5-min observations of 12 parameters.
Figure 2 Open field experiments on mice. Administration of compounds at a 1 mg/kg dose intramuscularly was done 4 h before of the measurements. (A) Travelling distance and (B) locomotion activity presented as mean ± SEM for 5-min recording period (n = 6–7).
Adult male CD-1 mice (Animal Breeding Facility Branch of Shemyakin-Ovchinnikov Institute of Bioorganic Chemistry, Russian Academy of Sciences, Pushchino, Russia) weighing 20–25 g were used. Animals that originally passed clinical examination that confirmed no deviations in health were divided into groups (at least eight male mice per group) using the principle of randomization. The average body weight of animals in each group was not statistically different between groups. Animals were housed at room temperature (23 ± 2 °C) and subjected to a 12-h light-dark cycle with food and water available ad libitum. All experiments were performed after receiving approval from the Animal Care and Use Committee of the Branch of the Institute of Bioorganic Chemistry, Russian Academy of Sciences (IBCh RAS) (Pushchino, Russia Federation). The samples were administered intramuscularly 2 h before testing (4 h in the open field test). The initial dose of 1 mg/kg was investigated for all samples, which was further reduced 5, 50, and 500 times for peptides.
In the locomotion measurements, exploration and anxiety were evaluated in the motor activity test on a computerized TSE Multi Conditioning System (TSE Systems GmbH, Bad Homburg, Germany). Four hours after the administration of the sample, the measurement was made, which lasted for 3 min. […]
The data significance in animal tests was determined by an analysis of variance followed by a Tukey’s test. […]

[10] = system: hERG channels; conditions: cited from earlier work
Procedure: Moreover, APETx2 potentiates rat ASIC1b and ASIC2a at concentrations of 3–10 µM (30–100-fold higher than its ASIC3 inhibitory concentration), which may have implications for its use in in vivo experiments ...

Question: What does the source list for `CC(C)C1c2cc(C3CC3c3ccc4cc(C(=N)N)ccc4c3)ccc2CCN1C` (stereo not drawn) [A-317567]?
Answer: Analgesic effect, CFA inflammatory thermal hyperalgesia [1]: produced an analgesic effect; Inhibition of ASIC3 sustained and transient currents [2]: blocked ASIC3’s sustained and transient currents

Question: Which “Nociceptive response to intraplantar acetic acid” value ([3]; rats) does the source give for `COc1cc2c(cc1OC)[C@@H]1Cc3ccc(OC)c(OC)c3CN1CC2` [Levo-tetrahydropalmatine, reference compound] here?
Answer: Its value is “inhibited the nociceptive response to intraplantar acetic acid injections”.

Question: What about the “Effect on amplitude of proton-gated currents” value [4] of the same molecule?
Answer: The value was “decreased the amplitude of proton-gated currents”.

Question: For `N=C(N)NC(=O)c1nc(Cl)c(N)nc1N` [amiloride], which “Inhibition of ASICs / ASIC3” value [2] is on record?
Answer: The value was “nonspecific inhibitory effect on ASICs”.

Question: With `COc1ccc2ccc(=O)oc2c1CC=C(C)C` [osthol] as the molecule, how does the “Inhibition of ASIC3” value [2] read?
Answer: Its value is “inhibit ASIC3”.

Question: And the “Block of voltage-gated Na+-channels” value [5]?
Answer: Its value is “block voltage-gated Na^+-channels”.

Question: For `O=C(O)c1ccccc1O` [salicylic acid], which “Inhibition of ASIC3 / ASICs currents” value ([2]; sensory neurons and heterologous-expressed ASIC3) is on record?
Answer: The value was “inhibit ASICs currents directly on sensory neurons and heterologous-expressed ASIC3 channels”.

Question: Which results are given for `CCCCNc1ccc(C(=O)OCCN(C)C)cc1` [tetracaine]?
Answer: Inhibition of ASIC1a currents [6]: inhibited the ASIC1a and ASIC1b currents; Inhibition of ASIC1b currents [7]: inhibited the ASIC1a and ASIC1b currents; Inhibition of transient ASIC3 currents ([2]; dependence on extracellular pH): inhibit the transient ASIC3 currents in a concentration-dependent manner

Question: With “GTACSCGNSKGIYWFYRPSCPTDRGYTGSCRYFLGTCCTPAD (disulfide 4-37, 6-30, 20-38) [APETx2]” as the molecule, how does the IC50 [8] read?
Answer: Its IC50 is 344 ± 80 nM.

Question: And the “Travelled distance, time spent freezing, distance in the central area versus control” value [9]?
Answer: Its value is “each of these differences was nonsignificant”.

Question: What about the “Inhibition of hERG channels” value [10] of the same molecule?
Answer: Its value is “reducing the maximal current amplitude and shifting the voltage dependence of activation to more positive potentials”.

Question: For “psalmotoxin 1 (EDCIPKWKGCVNRHGDCCEGLECWKRRRSFEVCVPKTPKT; UniProt P60514 1-40, looked up) [reference compound]”, which “Analgesic effect by blockade of ASIC1a in CNS” value ([3]; CNS) is on record?
Answer: Its value is “activation of the endogenous enkephalin pathway and potent analgesic effects”.
